In test [1] the target is T1, Estrogen receptor beta (Homo sapiens, UniProt Q92731). The test is described as follows: Displacement of fluorescein-labeled estradiol from human recombinant ERbeta at 0.2 uM by fluorescence polarization assay. A general note: Polarisation of emitted light reports the rotation of a fluorescent probe.
The target in test [2] is T2, Estrogen receptor (Homo sapiens) (UniProt P03372).
T2 sequence (whole entry): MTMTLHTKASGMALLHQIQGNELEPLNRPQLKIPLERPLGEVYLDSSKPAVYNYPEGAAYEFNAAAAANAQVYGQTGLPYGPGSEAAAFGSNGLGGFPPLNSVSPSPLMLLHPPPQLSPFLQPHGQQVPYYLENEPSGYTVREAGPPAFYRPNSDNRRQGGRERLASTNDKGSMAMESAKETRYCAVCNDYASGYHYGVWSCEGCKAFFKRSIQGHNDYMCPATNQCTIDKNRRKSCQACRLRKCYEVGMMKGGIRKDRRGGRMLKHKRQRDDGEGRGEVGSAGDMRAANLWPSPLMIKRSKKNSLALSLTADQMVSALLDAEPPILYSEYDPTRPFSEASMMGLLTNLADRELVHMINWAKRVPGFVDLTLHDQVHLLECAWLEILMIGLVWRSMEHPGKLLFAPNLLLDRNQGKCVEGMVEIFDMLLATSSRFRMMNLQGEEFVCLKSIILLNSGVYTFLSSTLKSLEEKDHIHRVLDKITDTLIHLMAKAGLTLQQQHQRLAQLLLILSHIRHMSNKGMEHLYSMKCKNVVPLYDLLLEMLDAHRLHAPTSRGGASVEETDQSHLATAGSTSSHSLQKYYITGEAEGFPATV
The test is described as follows: Displacement of fluorescein-labeled estradiol from human recombinant ERalpha at 5 uM by fluorescence polarization assay.

Test [3] has as its target T2, Estrogen receptor (Homo sapiens). The test is described as follows: Displacement of fluorescein-labeled estradiol from human recombinant ERalpha at 0.2 uM by fluorescence polarization assay.
The target is the same in test [4]. The test is described as follows: Displacement of fluorescein-labeled estradiol from human recombinant ERalpha at 1 uM by fluorescence polarization assay.
In test [5] the target is T1, Estrogen receptor beta. In words: Displacement of fluorescein-labeled estradiol from human recombinant ERbeta at 1 uM by fluorescence polarization assay.
For test [6], the target named is T1, Estrogen receptor beta. The test is described as follows: Displacement of fluorescein-labeled estradiol from human recombinant ERbeta at 5 uM by fluorescence polarization assay.

T1 sequence (Q92731 whole entry): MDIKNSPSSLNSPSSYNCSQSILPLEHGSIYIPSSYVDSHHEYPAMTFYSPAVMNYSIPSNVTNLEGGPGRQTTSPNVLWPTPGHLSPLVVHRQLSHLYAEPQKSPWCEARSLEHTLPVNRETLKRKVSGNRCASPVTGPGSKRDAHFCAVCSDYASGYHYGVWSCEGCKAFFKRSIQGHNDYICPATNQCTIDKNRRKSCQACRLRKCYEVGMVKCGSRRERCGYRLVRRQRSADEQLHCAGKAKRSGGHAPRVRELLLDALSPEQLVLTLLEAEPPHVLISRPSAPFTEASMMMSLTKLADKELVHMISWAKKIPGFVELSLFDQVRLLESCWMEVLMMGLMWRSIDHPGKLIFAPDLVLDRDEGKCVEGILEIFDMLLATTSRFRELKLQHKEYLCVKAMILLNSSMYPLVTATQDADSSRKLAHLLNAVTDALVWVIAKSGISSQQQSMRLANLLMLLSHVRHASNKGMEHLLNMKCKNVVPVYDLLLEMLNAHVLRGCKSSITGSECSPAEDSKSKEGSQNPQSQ

On to `CCC/C=C(\CCC)[C@@H](NC(=O)C(C)(C)C)c1ccc(C(=O)OC)cc1`, for which the Activity at Estrogen receptor beta [1] was 1%; in test [2], 63%; in test [3] it was 27%; in test [4], 42%; on Estrogen receptor beta [5] it was -4%; on Estrogen receptor beta [6], 10%.

Take `CCC[C@@H]1C[C@@]1(CCC)[C@@H](NP(=O)(c1ccccc1)c1ccccc1)c1ccc(Cl)cc1`: the Activity at Estrogen receptor beta [1] was 2%; in test [2] it was -44%; in test [3], 5%; in test [4], 30%; on Estrogen receptor beta [5], -1%; on Estrogen receptor beta [6], -5%.

Take `CCC/C=C(\CCC)[C@@H](NC(=O)c1cccs1)c1ccc(C(=O)OC)cc1`: the Activity at Estrogen receptor beta [1] worked out at 5%; in test [2], 86%; in test [3], 48%; in test [4], 73%; at Estrogen receptor beta [5], 13%; on Estrogen receptor beta [6], 31%.

As to `CCC/C=C(\CCC)[C@@H](NC(=O)c1ccccc1)c1ccccc1`, the Activity on Estrogen receptor beta [1] came out at 8%; in test [2] it was 82%; in test [3] it was 51%; in test [4] it was 56%; at Estrogen receptor beta [5] it was 6%; on Estrogen receptor beta [6], 17%.

`CCC/C=C(\CCC)[C@@H](NP(=O)(c1ccccc1)c1ccccc1)c1ccc(-c2ccccc2)cc1`: the Activity was 19% on Estrogen receptor beta [1]; -77% in test [2]; 46% in test [3]; 11% in test [4]; -10% on Estrogen receptor beta [5]; -25% at Estrogen receptor beta [6].

`CCCCCC/C=C(\C)[C@@H](NC(=O)c1ccc(C(F)(F)F)cc1)c1ccc(-c2ccccc2)cc1`: the Activity is -7% on Estrogen receptor beta [1]; 1% in test [2]; 29% in test [3]; 20% in test [4]; -6% at Estrogen receptor beta [5]; -3% at Estrogen receptor beta [6].

For the molecule `CCC/C=C(\CCC)[C@@H](NC(=O)c1ccc(C(F)(F)F)cc1)c1ccc(C(F)(F)F)cc1`, the Activity was 10% at Estrogen receptor beta [1]; 61% in test [2]; -7% in test [3]; 32% in test [4]; 5% on Estrogen receptor beta [5]; 5% on Estrogen receptor beta [6].

As to `CCC/C=C(\CCC)[C@@H](NC(=O)c1ccc(C(F)(F)F)cc1)c1ccccc1`, the Activity on Estrogen receptor beta [1] amounted to 10%; in test [2], 68%; in test [3], 47%; in test [4] it was 59%; on Estrogen receptor beta [5], 11%; on Estrogen receptor beta [6], 16%.

In the case of `CCC/C=C(\CCC)[C@@H](NS(=O)(=O)c1ccc(C(F)(F)F)cc1)c1ccc(C(=O)OC)cc1`, the Activity at Estrogen receptor beta [1] was determined as 15%; in test [2], 90%; in test [3] it was 63%; in test [4] it was 86%; at Estrogen receptor beta [5] it was 29%; at Estrogen receptor beta [6], 43%.

As to `CCC/C=C(\CCC)[C@@H](NS(=O)(=O)c1ccc(C(F)(F)F)cc1)c1ccc(-c2ccccc2)cc1`, the Activity on Estrogen receptor beta [1] was 7%; in test [2], 46%; in test [3], 72%; in test [4] it was 14%; on Estrogen receptor beta [5], 8%; on Estrogen receptor beta [6], 7%.

As for `CCCC[C@@H]1C[C@H]1C(NC(=O)c1cccs1)c1ccc(C(F)(F)F)cc1` (single isomer, unassigned), the Activity was determined as 8% at Estrogen receptor beta [1]; 79% in test [2]; 50% in test [3]; 58% in test [4]; 14% at Estrogen receptor beta [5]; 13% on Estrogen receptor beta [6].

In the case of `CCCC[C@@H]1C[C@H]1[C@@H](NC(=O)c1cccs1)c1ccc(-c2ccccc2)cc1`, the Activity on Estrogen receptor beta [1] is -1%; in test [2], 37%; in test [3], 58%; in test [4], 54%; on Estrogen receptor beta [5], 8%; at Estrogen receptor beta [6], 5%.

`C=C(CCCC)[C@@H](NC(=O)c1ccccc1)c1ccccc1`: the Activity at Estrogen receptor beta [1] was found to be 2%; in test [2], 67%; in test [3], 58%; in test [4], 70%; on Estrogen receptor beta [5], 3%; on Estrogen receptor beta [6] it was 9%.

On to `CCCC[C@@H]1C[C@H]1[C@@H](NC(=O)c1ccco1)c1ccc(C(F)(F)F)cc1`, for which the Activity is 0% on Estrogen receptor beta [1]; 57% in test [2]; 6% in test [3]; 15% in test [4]; 2% on Estrogen receptor beta [5]; 22% at Estrogen receptor beta [6].

For the molecule `CCC/C=C(\CCC)[C@@H](NS(=O)(=O)c1cccc2cccnc12)c1ccc(C(=O)OC)cc1`, the Activity on Estrogen receptor beta [1] turned out to be 7%; in test [2], 54%; in test [3], 54%; in test [4], 111%; on Estrogen receptor beta [5], 24%; at Estrogen receptor beta [6] it was 42%.

`C=C(CCC)[C@@H](NC(=O)c1ccccc1Cl)c1ccccc1`: the Activity was found to be 11% at Estrogen receptor beta [1]; 73% in test [2]; 68% in test [3]; 68% in test [4]; 7% at Estrogen receptor beta [5]; 7% on Estrogen receptor beta [6].

For `CCC/C=C(\CCC)[C@@H](NC(=O)c1cccs1)c1ccc(C(F)(F)F)cc1`, the Activity came out at 9% on Estrogen receptor beta [1]; 73% in test [2]; 43% in test [3]; 31% in test [4]; 12% on Estrogen receptor beta [5]; 19% at Estrogen receptor beta [6].

For the molecule `CCCC[C@@H]1C[C@H]1[C@@H](NC(=O)c1cccnc1)c1ccc(-c2ccccc2)cc1`, the Activity at Estrogen receptor beta [1] turned out to be 2%; in test [2], 53%; in test [3], 64%; in test [4], 63%; on Estrogen receptor beta [5] it was 2%; at Estrogen receptor beta [6] it was 10%.

As for `CCC/C=C(\CCC)[C@@H](NP(=O)(c1ccccc1)c1ccccc1)c1ccccc1`, the Activity on Estrogen receptor beta [1] was 6%; in test [2] it was 72%; in test [3], 47%; in test [4] it was 25%; at Estrogen receptor beta [5], 9%; at Estrogen receptor beta [6] it was 14%.

On to `CCC/C=C(\CCC)[C@@H](NC(=O)Cc1ccccc1)c1ccc(C(=O)OC)cc1`, for which the Activity at Estrogen receptor beta [1] was -11%; in test [2], 48%; in test [3] it was 3%; in test [4], 22%; at Estrogen receptor beta [5], -2%; on Estrogen receptor beta [6] it was 13%.

For the molecule `CCCC[C@@H]1C[C@H]1C(NC(=O)c1ccco1)c1ccc(C(=O)OC)cc1` (single isomer, unassigned), the Activity at Estrogen receptor beta [1] was 8%; in test [2], 89%; in test [3] it was 64%; in test [4] it was 84%; on Estrogen receptor beta [5] it was 2%; on Estrogen receptor beta [6] it was 15%.

With `C=C(CCCC)[C@@H](NC(=O)C(C)(C)C)c1ccccc1`, the Activity on Estrogen receptor beta [1] is -10%; in test [2], 13%; in test [3], -67%; in test [4], 13%; at Estrogen receptor beta [5] it was -12%; on Estrogen receptor beta [6], -4%.

(Values after ChEMBL document CHEMBL1137758, “Biphenyl C-cyclopropylalkylamides: New scaffolds for targeting estrogen receptor beta” (Bioorg Med Chem Lett, 2009).)
